Here are results for 14 compounds from PMC2880318 (Immunome Research, 2010).

The structures appear in SMILES notation. Where a SMILES comes first, the peptide text is derived from it.

For the assay, the target named is purified HLA-DRB1*0101 (Homo sapiens, UniProt P01903+P01911, A100R/D57E/F55L/F60I/F76Y/I96L/L162R/M171V/P40L/Q125E/R42F/V115G/Y59C). The experiment in a line: biochemical. In kind it is binding.
The compound `CC[C@H](C)[C@H](NC(=O)[C@@H]1CCCN1C(=O)[C@H](CO)NC(=O)[C@@H]1CCCN1)C(=O)NCC(=O)N[C@@H](Cc1ccc(O)cc1)C(=O)N[C@@H](CC(C)C)C(=O)NCC(=O)N[C@@H](CC(C)C)C(=O)N[C@@H](CC(C)C)C(=O)N[C@@H](CO)C(=O)N[C@@H](CCC(N)=O)C(=O)N[C@@H](CCCNC(=N)N)C(=O)N[C@H](C(=O)N[C@@H](CCCNC(=N)N)C(=O)O)[C@@H](C)O` [LASV GPC236-250] came in with an IC50 of 0.14 nM. In other words, the sub-nanomolar range.
Under `CC(C)C[C@H](NC(=O)CNC(=O)[C@H](CS)NC(=O)[C@@H](N)CO)C(=O)N[C@@H](Cc1ccc(O)cc1)C(=O)N[C@@H](CCCCN)C(=O)N[C@@H](CCC(N)=O)C(=O)N1CCC[C@H]1C(=O)NCC(=O)N[C@H](C(=O)N1CCC[C@H]1C(=O)N[C@H](C(=O)N[C@@H](CCCNC(=N)N)C(=O)N[C@@H](Cc1c[nH]c2ccccc12)C(=O)N[C@@H](CCCCN)C(=O)O)C(C)C)C(C)C` [LASV GPC476-490] stands 1.5 nM.
Then `CC[C@H](C)[C@H](NC(=O)[C@H](CC(=O)O)NC(=O)[C@H](CC(C)C)NC(=O)[C@@H](NC(=O)[C@@H](N)CCCNC(=N)N)C(C)C)C(=O)N[C@@H](CC(C)C)C(=O)N[C@H](C(=O)N[C@@H](C)C(=O)N[C@@H](CCCNC(=N)N)C(=O)N[C@@H](CCCNC(=N)N)C(=O)N[C@@H](CC(C)C)C(=O)N[C@@H](CC(C)C)C(=O)N[C@@H](CC(C)C)C(=O)N[C@@H](CCCCN)C(=O)N[C@@H](CCCCN)C(=O)O)C(C)C` [GTOV L391-405] (H-RVLDILVARRLLLKK-OH), with 0.19 nM.
Consider `CC[C@H](C)[C@H](NC(=O)[C@H](Cc1c[nH]c2ccccc12)NC(=O)[C@H](CC(=O)O)NC(=O)[C@H](Cc1ccccc1)NC(=O)[C@H](CCC(=O)O)NC(=O)[C@@H]1CCCN1C(=O)[C@H](CO)NC(=O)CNC(=O)[C@@H](N)CCCCN)C(=O)N[C@@H](CC(C)C)C(=O)NCC(=O)N[C@@H](Cc1c[nH]c2ccccc12)C(=O)N[C@H](C(=O)N[C@H](C(=O)N[C@@H](CCCCN)C(=O)O)[C@@H](C)CC)[C@@H](C)O` [GTOV GPC131-145] (H-KGSPEFDWILGWTIK-OH), for which the IC50 came out at 1.7 nM.
Then `CC[C@H](C)[C@H](NC(=O)[C@H](CC(=O)O)NC(=O)[C@H](CC(N)=O)NC(=O)[C@H](Cc1ccccc1)NC(=O)[C@@H](NC(=O)[C@H](CCCCN)NC(=O)[C@H](CCCNC(=N)N)NC(=O)[C@H](C)NC(=O)[C@H](CS)NC(=O)[C@H](CC(N)=O)NC(=O)[C@H](CCCNC(=N)N)NC(=O)[C@@H](NC(=O)[C@H](Cc1ccccc1)NC(=O)[C@@H](N)CCSC)[C@@H](C)CC)C(C)C)C(=O)N[C@@H](CCCCN)C(=O)O` [JUNV L1491-1505], with 2 nM.
Then `CC(C)C[C@H](NC(=O)[C@H](CO)NC(=O)[C@H](CCCNC(=N)N)NC(=O)[C@H](CCC(=O)O)NC(=O)[C@H](Cc1ccccc1)NC(=O)[C@H](CC(N)=O)NC(=O)[C@H](CC(C)C)NC(=O)[C@H](Cc1c[nH]cn1)NC(=O)[C@@H](NC(=O)[C@H](CCCCN)NC(=O)[C@@H](N)CO)[C@@H](C)O)C(=O)N[C@@H](CCCCN)C(=O)N[C@@H](C)C(=O)N[C@@H](Cc1ccccc1)C(=O)N[C@@H](Cc1ccccc1)C(=O)O` [MACV GPC251-265], with 1.7 nM; and `CC(C)C[C@H](NC(=O)[C@H](C)NC(=O)[C@H](CC(C)C)NC(=O)[C@H](Cc1ccccc1)NC(=O)[C@@H](NC(=O)[C@H](Cc1ccccc1)NC(=O)[C@@H](N)Cc1ccccc1)C(C)C)C(=O)N[C@@H](C)C(=O)NCC(=O)N[C@@H](CCCNC(=N)N)C(=O)N[C@@H](CO)C(=O)N[C@@H](CS)C(=O)N[C@H](C(=O)N[C@@H](CCC(=O)O)C(=O)N[C@@H](CCC(=O)O)C(=O)O)[C@@H](C)O` [JUNV GPC46-60], with 0.23 nM.
Under `CC[C@H](C)[C@H](NC(=O)[C@H](Cc1c[nH]cn1)NC(=O)[C@H](Cc1c[nH]cn1)NC(=O)[C@@H](NC(=O)[C@H](CCC(N)=O)NC(=O)[C@H](CC(N)=O)NC(=O)[C@H](C)NC(=O)[C@H](Cc1ccccc1)NC(=O)[C@H](C)NC(=O)[C@H](CCSC)NC(=O)[C@H](CC(C)C)NC(=O)[C@H](Cc1ccccc1)NC(=O)[C@H](Cc1ccc(O)cc1)NC(=O)[C@@H](N)CCCNC(=N)N)[C@@H](C)CC)C(=O)N[C@@H](CC(=O)O)C(=O)O` [MACV L636-650] stands 0.24 nM; under `CC(C)C[C@H](NC(=O)[C@H](Cc1ccccc1)NC(=O)[C@H](CC(C)C)NC(=O)[C@@H](NC(=O)[C@@H](NC(=O)[C@@H](NC(=O)[C@@H](N)Cc1ccccc1)[C@@H](C)O)[C@@H](C)O)[C@@H](C)O)C(=O)N[C@@H](Cc1c[nH]cn1)C(=O)N[C@@H](CC(C)C)C(=O)N[C@H](C(=O)NCC(=O)N[C@@H](Cc1ccccc1)C(=O)N1CCC[C@H]1C(=O)N[C@H](C(=O)N[C@@H](Cc1c[nH]cn1)C(=O)O)[C@@H](C)O)C(C)C` [SABV GPC436-450] (H-FTTTLFLHLVGFPTH-OH), 0.92 nM; under `CC[C@H](C)[C@H](NC(=O)[C@H](C)NC(=O)[C@H](CCC(=O)O)NC(=O)[C@H](CC(C)C)NC(=O)[C@@H](NC(=O)[C@H](CC(=O)O)NC(=O)[C@H](CC(C)C)NC(=O)[C@H](CC(C)C)NC(=O)[C@@H](N)CCCNC(=N)N)[C@@H](C)CC)C(=O)N[C@@H](CCCCN)C(=O)N[C@@H](CC(C)C)C(=O)N[C@H](C(=O)N[C@@H](CCCNC(=N)N)C(=O)N[C@@H](CCCCN)C(=O)N[C@@H](CCCCN)C(=O)O)[C@@H](C)CC` [JUNV L391-405], 0.48 nM.
`CC[C@H](C)[C@H](N)C(=O)N[C@@H](CCC(N)=O)C(=O)N[C@@H](CC(C)C)C(=O)N[C@H](C(=O)N[C@@H](Cc1ccccc1)C(=O)N[C@@H](CO)C(=O)N[C@@H](CO)C(=O)N[C@@H](CCSC)C(=O)N[C@H](C(=O)N[C@@H](CC(N)=O)C(=O)N1CCC[C@H]1C(=O)N[C@@H](CC(C)C)C(=O)N[C@H](C(=O)N[C@H](C(=O)N[C@H](C(=O)O)[C@@H](C)O)[C@@H](C)CC)C(C)C)[C@@H](C)CC)C(C)C` [GTOV L1826-1840] (H-IQLVFSSMINPLVIT-OH) registered an IC50 of 0.23 nM. This IC50 lies about 2.1-fold lower than the previous one.
Then `CC[C@H](C)[C@H](NC(=O)[C@H](CC(C)C)NC(=O)CNC(=O)[C@H](CCC(=O)O)NC(=O)[C@@H]1CCCN1C(=O)[C@H](CC(N)=O)NC(=O)[C@@H](NC(=O)[C@H](CCCCN)NC(=O)[C@H](CCC(N)=O)NC(=O)[C@H](Cc1ccccc1)NC(=O)[C@H](CC(N)=O)NC(=O)[C@@H](N)CCCNC(=N)N)C(C)C)C(=O)N[C@@H](CCCCN)C(=O)N[C@@H](CCC(=O)O)C(=O)N[C@@H](Cc1ccccc1)C(=O)O` [LCMV L256-270] (H-RNFQKVNPEGLIKEF-OH), with 5.6 nM; and `CC[C@H](C)[C@H](NC(=O)[C@H](Cc1c[nH]cn1)NC(=O)[C@H](CCCNC(=N)N)NC(=O)[C@H](Cc1c[nH]cn1)NC(=O)[C@@H](NC(=O)[C@@H]1CCCN1C(=O)[C@H](Cc1ccccc1)NC(=O)CNC(=O)[C@@H](NC(=O)[C@H](CC(C)C)NC(=O)[C@H](Cc1c[nH]cn1)NC(=O)[C@H](CC(C)C)NC(=O)[C@@H](N)Cc1ccccc1)C(C)C)[C@@H](C)O)C(=O)N[C@@H](CCCNC(=N)N)C(=O)NCC(=O)O` [SABV GPC441-455] (H-FLHLVGFPTHRHIRG-OH), with 0.09 nM.
Then `CC[C@H](C)[C@H](N)C(=O)N1CCC[C@H]1C(=O)N[C@H](C(=O)N[C@@H](CCC(N)=O)C(=O)N[C@@H](CC(C)C)C(=O)N[C@@H](CC(C)C)C(=O)N1CCC[C@H]1C(=O)N[C@@H](CC(N)=O)C(=O)N[C@H](C(=O)N[C@@H](CC(C)C)C(=O)N[C@H](C(=O)N[C@@H](Cc1ccccc1)C(=O)N[C@@H](CCC(N)=O)C(=O)N[C@@H](C)C(=O)N[C@@H](CCCCN)C(=O)O)C(C)C)[C@@H](C)O)[C@@H](C)CC` [GTOV NP541-555] (H-IPIQLLPNTLVFQAK-OH), with 0.25 nM.
